Data from patent US20260159512A1, “BCAT2 INHIBITORS” (AGIOS PHARMACEUTICALS, INC., priority 2021, published 2026).

Columns and labels:
Conditions in all cases: average where tested multiple times
[1] = target: T1, BCAT2 (Homo sapiens, UniProt O15382); experiment: BCAT2 in vitro enzyme inhibition assay (resazurin/diaphorase-coupled fluorescence); format: biochemical
T1 sequence (O15382 28-392): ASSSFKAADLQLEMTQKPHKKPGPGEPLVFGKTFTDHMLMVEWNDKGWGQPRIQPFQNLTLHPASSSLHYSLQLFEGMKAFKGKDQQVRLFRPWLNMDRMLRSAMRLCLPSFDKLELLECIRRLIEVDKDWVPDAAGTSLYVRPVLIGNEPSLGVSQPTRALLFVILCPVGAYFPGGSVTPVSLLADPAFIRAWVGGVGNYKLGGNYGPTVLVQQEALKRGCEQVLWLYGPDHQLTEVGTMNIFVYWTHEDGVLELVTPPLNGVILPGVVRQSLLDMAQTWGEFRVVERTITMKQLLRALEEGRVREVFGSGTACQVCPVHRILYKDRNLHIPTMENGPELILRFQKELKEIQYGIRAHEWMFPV
In short: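 Coupled fluorescence readout: glutamate formed from L-leucine/α-ketoglutarate transamination drives GDH/NAD/diaphorase reduction of resazurin (Ex 540/Em 590). Human BCAT2 was first exposed 1 h at room temperature to compound, top final 100 μM in 3-fold, 10-point series; substrate reaction ran 1 h before SDS quench, in technical duplicate with DMSO max and enzyme-free min controls.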

[2] = target: T2, hBCAT1 (Homo sapiens, UniProt P54687); experiment: BCAT1 in vitro enzyme inhibition assay (resazurin/diaphorase-coupled fluorescence); format: biochemical
T2 sequence (P54687 1-386): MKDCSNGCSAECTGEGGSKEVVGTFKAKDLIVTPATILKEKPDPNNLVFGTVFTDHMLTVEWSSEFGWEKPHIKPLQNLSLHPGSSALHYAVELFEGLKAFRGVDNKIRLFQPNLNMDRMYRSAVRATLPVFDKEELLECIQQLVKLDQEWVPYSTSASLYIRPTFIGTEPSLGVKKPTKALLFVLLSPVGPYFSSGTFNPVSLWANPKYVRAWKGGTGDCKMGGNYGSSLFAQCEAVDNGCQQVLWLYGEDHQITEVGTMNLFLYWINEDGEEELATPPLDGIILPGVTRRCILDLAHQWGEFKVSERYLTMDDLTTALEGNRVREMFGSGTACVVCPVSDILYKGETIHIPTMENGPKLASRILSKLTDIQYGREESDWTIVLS
In short: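 Human BCAT1 activity read by resazurin/diaphorase-coupled fluorescence. Compounds added from 50× DMSO stocks at 1:50, giving 10-point 3-fold titrations from 100 μM top final concentration. Run in technical duplicate; repeat tests averaged.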

[3] = target: T1, BCAT2; experiment: BCAT2 in vitro cell inhibition using engineered A549 cells (KMV cell assay, 13C6-KMV by LC-MS/MS); format: cell-based; parameters: The result was an engineered A549 cell line that expressed endogenous BCAT2; endogenous in cells; host or cells: A549 cells with MUT and BCAT1 knocked out by CRISPR/CAS9; key to BCAT2 Cell Inhibition: A: less than or equal to 0.100 μM; B: greater than 0.100 and less than or equal to 0.500 μM; C: greater than 0.500 and less than or equal to 1.000 μM; d: greater than 1.000 μM; E: no fit

Compound	IC50 [1] [nM]	IC50 [2] [nM]	IC50 [3] [nM]	BCAT2 Cell Inhibition [3]
CC(C)Cc1nc2cnc(-c3ccc4ccoc4c3)cc2n1[C@@H]1CCC[C@H](NC(=O)c2ncc(Cl)s2)C1 [Example 319, N-((1S,3R)-3-(6-(benzofuran-6-yl)-2-isobutyl-1H-imidazo[4,5-c]pyridin-1-yl)cyclohexyl)-5-chlorothiazole-2-carboxamide]	100 to 500	1000 to 5000	–	E
CC(C)Cc1nc2cnc(-c3cc4ccccc4o3)cc2n1[C@@H]1CCC[C@H](NC(=O)c2ncc(Cl)s2)C1 [Example 320, N-((1S,3R)-3-(6-(benzofuran-2-yl)-2-isobutyl-1H-imidazo[4,5-c]pyridin-1-yl)cyclohexyl)-5-chlorothiazole-2-carboxamide]	100 to 500	1000 to 5000	–	E
CC(C)Cc1nc2cnc(-c3ncns3)cc2n1[C@@H]1CCC[C@H](NC(=O)c2ncc(Cl)s2)C1 [Example 328, 5-chloro-N-((1S,3R)-3-(2-isobutyl-6-(1,2,4-thiadiazol-5-yl)-1H-imidazo[4,5-c]pyridin-1-yl)cyclohexyl)thiazole-2-carboxamide]	100 to 500	> 5000	> 1000	–
CC(C)Cc1nc2cnc(-c3ccccc3CC#N)cc2n1[C@@H]1CCC[C@H](NC(=O)c2ccc(Cl)s2)C1 [Example 332, 5-chloro-N-((1S,3R)-3-(6-(2-(cyanomethyl)phenyl)-2-isobutyl-1H-imidazo[4,5-c]pyridin-1-yl)cyclohexyl)thiophene-2-carboxamide]	100 to 500	500 to 1000	500 to 1000	–
O=C(N[C@H]1CCC[C@@H](n2c(-c3c(O)cccc3F)nc3cnc(-c4nc[nH]n4)cc32)C1)c1ccc(Cl)s1 [Example 338, 5-chloro-N-((1S,3R)-3-(2-(2-fluoro-6-hydroxyphenyl)-6-(1H-1,2,4-triazol-3-yl)-1H-imidazo[4,5-c]pyridin-1-yl)cyclohexyl)thiophene-2-carboxamide]	≤ 100	< 500	≤ 100	–
O=C(N[C@H]1CCC[C@@H](n2c(-c3c(O)cccc3F)nc3cnc(-c4nc[nH]n4)cc32)C1)c1ncc(Cl)s1 [Example 339, 5-chloro-N-((1S,3R)-3-(2-(2-fluoro-6-hydroxyphenyl)-6-(1H-1,2,4-triazol-3-yl)-1H-imidazo[4,5-c]pyridin-1-yl)cyclohexyl)thiazole-2-carboxamide]	≤ 100	< 500	≤ 100	–
O=C(N[C@H]1CCC[C@@H](n2c(-c3ccccc3O)nc3cnc(-c4nc[nH]n4)cc32)C1)c1ncc(Cl)s1 [Example 340, 5-chloro-N-((1S,3R)-3-(2-(2-hydroxyphenyl)-6-(1H-1,2,4-triazol-3-yl)-1H-imidazo[4,5-c]pyridin-1-yl)cyclohexyl)thiazole-2-carboxamide]	≤ 100	< 500	≤ 100	–
C#Cc1ccc(C(=O)N[C@H]2CCC[C@@H](n3c(CC(C)C)nc4cnc(-c5nc[nH]n5)cc43)C2)s1 [Example 341, 5-ethynyl-N-((1S,3R)-3-(2-isobutyl-6-(1H-1,2,4-triazol-3-yl)-1H-imidazo[4,5-c]pyridin-1-yl)cyclohexyl)thiophene-2-carboxamide]	≤ 100	1000 to 5000	≤ 100	–

Now from value to compound:

IC50 [1] [nM]	IC50 [2] [nM]	IC50 [3] [nM]	BCAT2 Cell Inhibition [3]	Compound
≤ 100	< 500	≤ 100	–	CC(C)Cc1nc2cnc(-c3nc[nH]n3)cc2n1[C@@H]1CCC[C@H](NC(=O)c2ccc(Cl)s2)C1 [Example 317, 5-chloro-N-((1S,3R)-3-(2-isobutyl-6-(1H-1,2,4-triazol-3-yl)-1H-imidazo[4,5-c]pyridin-1-yl)cyclohexyl)thiophene-2-carboxamide]
≤ 100	500 to 1000	500 to 1000	–	CC(C)Cc1nc2cnc(-c3ncon3)cc2n1[C@@H]1CCC[C@H](NC(=O)c2ncc(Cl)s2)C1 [Example 321, 5-chloro-N-((1S,3R)-3-(2-isobutyl-6-(1,2,4-oxadiazol-3-yl)-1H-imidazo[4,5-c]pyridin-1-yl)cyclohexyl)thiazole-2-carboxamide]
≤ 100	1000 to 5000	500 to 1000	–	CC(C)C(F)c1nc2cnc(-c3ccccn3)cc2n1[C@@H]1CCC[C@H](NC(=O)c2ncc(Cl)s2)C1 (stereo partly drawn) [Example 322, 5-chloro-N-((1S,3R)-3-(2-(1-fluoro-2-methylpropyl)-6-(pyridin-2-yl)-1H-imidazo[4,5-c]pyridin-1-yl)cyclohexyl)thiazole-2-carboxamide]
≤ 100	1000 to 5000	100 to 500	–	CC(C)Cc1nc2cnc(-c3nc4ccccc4o3)cc2n1[C@@H]1CCC[C@H](NC(=O)c2ncc(Cl)s2)C1 [Example 324, N-((1S,3R)-3-(6-(benzo[d]oxazol-2-yl)-2-isobutyl-1H-imidazo[4,5-c]pyridin-1-yl)cyclohexyl)-5-chlorothiazole-2-carboxamide]
≤ 100	< 500	≤ 100	–	O=C(N[C@H]1CCC[C@@H](n2c(CC3(C(F)(F)F)CC3)nc3cnc(-c4nc[nH]n4)cc32)C1)c1ncc(Cl)s1 [Example 325, N-((1S,3R)-3-(6-(1H-1,2,4-triazol-3-yl)-2-((1-(trifluoromethyl)cyclopropyl)methyl)-1H-imidazo[4,5-c]pyridin-1-yl)cyclohexyl)-5-chlorothiazole-2-carboxamide]
≤ 100	< 500	≤ 100	–	Cc1csc(-c2cc3c(cn2)nc(CC(C)C)n3[C@@H]2CCC[C@H](NC(=O)c3ncc(Cl)s3)C2)n1 [Example 326, 5-chloro-N-((1S,3R)-3-(2-isobutyl-6-(4-methylthiazol-2-yl)-1H-imidazo[4,5-c]pyridin-1-yl)cyclohexyl)thiazole-2-carboxamide]
≤ 100	500 to 1000	500 to 1000	–	CC(C)Cc1nc2cnc(-c3nc(Cl)cs3)cc2n1[C@@H]1CCC[C@H](NC(=O)c2ncc(Cl)s2)C1 [Example 329, 5-chloro-N-((1S,3R)-3-(6-(4-chlorothiazol-2-yl)-2-isobutyl-1H-imidazo[4,5-c]pyridin-1-yl)cyclohexyl)thiazole-2-carboxamide]
≤ 100	< 500	≤ 100	–	CC(C)Cc1nc2cnc(-c3nc(CO)cs3)cc2n1[C@@H]1CCC[C@H](NC(=O)c2ncc(Cl)s2)C1 [Example 330, 5-chloro-N-((1S,3R)-3-(6-(4-(hydroxymethyl)thiazol-2-yl)-2-isobutyl-1H-imidazo[4,5-c]pyridin-1-yl)cyclohexyl)thiazole-2-carboxamide]
≤ 100	< 500	≤ 100	–	CC(C)Cc1nc2cnc(-c3ncccn3)cc2n1[C@@H]1CCC[C@H](NC(=O)c2ncc(Cl)s2)C1 [Example 331, 5-chloro-N-((1S,3R)-3-(2-isobutyl-6-(pyrimidin-2-yl)-1H-imidazo[4,5-c]pyridin-1-yl)cyclohexyl)thiazole-2-carboxamide]
≤ 100	< 500	500 to 1000	–	CC(C)Cc1nc2cnc(-n3ccc(N)n3)cc2n1[C@@H]1CCC[C@H](NC(=O)c2ncc(Cl)s2)C1 [Example 334, N-((1S,3R)-3-(6-(3-amino-1H-pyrazol-1-yl)-2-isobutyl-1H-imidazo[4,5-c]pyridin-1-yl)cyclohexyl)-5-chlorothiazole-2-carboxamide]
≤ 100	< 500	500 to 1000	–	CC(C)Cc1nc2cnc(-n3ncc(CO)n3)cc2n1[C@@H]1CCC[C@H](NC(=O)c2ncc(Cl)s2)C1 [Example 337, 5-chloro-N-((1S,3R)-3-(6-(4-(hydroxymethyl)-2H-1,2,3-triazol-2-yl)-2-isobutyl-1H-imidazo[4,5-c]pyridin-1-yl)cyclohexyl)thiazole-2-carboxamide]
